Reference: USRE38792E1, “Modified bacterial cellulose” (Ajinomoto Co., Ltd., priority 1996, dated 2005)

Columns and labels:
[1] = system: Acetobacter pasteurianus FERM BP-4176; assay: Shape/length of cellulose-producing bacterium by optical microscope; format: cell-based
Procedure: (§1) Seed culture was carried out by placing 20 ml of the above culture medium in a 100 ml flask with baffle, inoculating Acetobacter pasteurianus FERM BP-4176, and then culturing at 25° C. for 3 days with stirring at 200 rpm. The culture medium was crushed by a blender, and added to a main culture medium having the above composition in a concentration of 2% seed culture.
(§2) The main culture was carried out by static culture at 25° C. During the culture, culture solution and bacterial cellulose were withdrawn, and the morphology of bacteria was observed by an optical microscope, an electron microscope and an atomic force microscope.
(§3) Six main culture media were used, and nalidixic acid (NA) was added thereto in a concentration of 0.01 mM, 0.05 mM, 0.1 mM, 0.2 mM or 1.0 mM except one medium to which NA was not added.
(§4) Acetobacter pasteurianus FERM BP-4176 was cultured in static culture, and the culture solution and bacterial cellulose were withdrawn, and the shape of bacteria was observed by the optical microscope, the electron microscope and the atomic force microscope, similar to Example 1, except that chloramphenicol was used instead of nalidixic acid.
That is, six main culture media having the aforementioned composition were used, and chloramphenicol (CP) was added thereto in a concentration of 0.1 mM, 0.2 mM, 0.3 mM, 0.5 mM or 1.0 mM except one medium to which CP was not added.
as §4, with “form” for “shape”
That is, four main culture media having the aforementioned composition were used, and dithiothreitol (DTT) was added thereto in a concentration of 0.5 mM, 1.0 mM or 2.0 mM except one medium to which DTT was not added.
as §4, with “in agitation culture at 180 rpm instead of” for “in”, “electro” for “electron”, “1.” for “1, except that chloramphenicol was used instead of nalidixic acid.”
That is, […] main culture media having the aforementioned composition were used, and nalidixic acid (NA) was added thereto in a concentration of 0.10 mM, or 0.20 mM, except one medium to which NA was not added.

[2] = system: Acetobacter pasteurianus FERM BP-4176; assay: Production of bacterial cellulose in static culture; format: cell-based; details: NA 0.01 to 1.0 mM
Procedure: The culture medium used was composed of 50.0 g/l sucrose, 5.0 g/l “Total Amino Acid” (Ajinomoto Co., Inc.), 0.2 g/l phytic acid, 2.4 g/l magnesium sulfate and 1.0 g/l ammonium sulfate (pH 5.0).
as §1, §2, §3

SMILES | length of the bacterium as fraction of the bacteria cultured in no DTT medium ([1]; 1.0 mM DTT, static culture 2 days) | change of length of the cellulose-producing bacterium with increasing concentration ([1]; static culture) | length of the cellulose-producing bacterium, up to, relative to bacteria cultured in no CP medium ([1]; CP 0.1 to 1.0 mM, static culture) [times] | lengthening of bacterium compared with no addition of NA ([1]; 0.1 mM NA, static culture 2 days) [times] | change of length of the cellulose-producing bacteria ([1]; agitation culture 180 rpm, 0.10 or 0.20 mM NA) | production of bacterial cellulose with increasing NA concentration [2]
O[C@H](CS)[C@H](O)CS (racemic) [DTT, dithiothreitol] | ⅓ to ½ | decreased |  |  |  | 
O=C(N[C@H](CO)[C@H](O)c1ccc([N+](=O)[O-])cc1)C(Cl)Cl [CP, chloramphenicol] |  | increased | 8 to 12 |  |  | 
CCn1cc(C(=O)O)c(=O)c2ccc(C)nc21 [NA, nalidixic acid] |  |  |  | 2 to 4 | increased | inhibited
